Test results from patent US11583545B2, “Parasiticidal compositions comprising eprinomectin and praziquantel, methods and uses thereof” (BOEHRINGER INGELHEIM ANIMAL HEALTH USA INC., priority 2018, dated 2023).

Tests used:
[1] = Stability study of topical solution in the market container (HPLC, 30° C./65% RH); assay type: physicochemical; conditions: in formulation of Example 1, two runs
[2] = in vivo
in vivo = conditions: cat
[3] = Pharmacokinetic assessment in cats after administration of the formulation of Example 1; conditions: blood of cats; after administration of formulation of Example 1

| Compound | average % label claim ([1]; time point 0 month) | average % label claim ([1]; time point 3 months) | average % label claim ([1]; time point 6 months) | average % label claim ([1]; time point 9 months) | average % label claim ([1]; time point 12 months) | average % label claim ([1]; time point 18 months) | time at which Cmax is reached [2] | half-life (in vivo) | terminal half-life [3] |
| --- | --- | --- | --- | --- | --- | --- | --- | --- | --- |
| O=C(C1CCCCC1)N1CC(=O)N2CCc3ccccc3C2C1 (stereo not drawn) [Praziquantel, praziquantel] | 99.52 % LC | 97.38 % LC | 97.74 % LC | 98.44 % LC | 98.36 % LC | 97.04 % LC | 6 h | 3.08 days |  |
| Eprinomectin | 99.33 % LC | 97.92 % LC | 97.61 % LC | 98.40 % LC | 98.50 % LC | 96.48 % LC |  |  | 4.75 days |
